Experimental data taken from patent US12378224B2 (Dong-A Socio Holdings Co., Ltd., priority 2016, dated 2025).

Each molecule was assayed against human MER (528-end) (Homo sapiens (Human), UniProt Q12866) (assay: HTRF Kinase Activity Biochemical Assay (KinEASE-TK)). Conditions: 10 uM ATP.
Outline: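 Activity read-out is the HTRF ratio (665 nm over 620 nm emission, ×10,000; excitation 340 nm) after 1 h detection with 0.375 nM Eu3+-cryptate anti-TK antibody plus 0.062 uM SA-XL665. Preceding kinase step: human MER (528-end), biotinylated TK substrate, 1 h, room temperature.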

Chain of human MER (528-end) (Q12866 528-999 limits assumed): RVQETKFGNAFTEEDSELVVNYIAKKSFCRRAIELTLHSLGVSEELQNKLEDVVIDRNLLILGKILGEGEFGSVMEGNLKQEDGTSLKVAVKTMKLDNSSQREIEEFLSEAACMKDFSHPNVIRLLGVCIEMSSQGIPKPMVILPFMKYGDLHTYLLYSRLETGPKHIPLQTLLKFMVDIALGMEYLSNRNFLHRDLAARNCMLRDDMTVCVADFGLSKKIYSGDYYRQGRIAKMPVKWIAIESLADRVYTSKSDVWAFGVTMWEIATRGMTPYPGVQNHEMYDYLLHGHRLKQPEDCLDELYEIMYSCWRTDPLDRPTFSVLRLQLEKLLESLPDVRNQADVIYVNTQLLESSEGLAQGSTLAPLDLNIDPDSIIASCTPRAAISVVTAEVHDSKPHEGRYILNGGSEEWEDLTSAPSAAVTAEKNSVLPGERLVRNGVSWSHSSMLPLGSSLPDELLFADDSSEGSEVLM

IC50 [nM] | Compound
10 to 100 | CN1CCN(Cc2ccc(-c3ccc(C(=O)N4CC[C@@H](NC(=O)c5cc(-c6cnn(C)c6)cnc5N)C4)cc3)cc2)CC1 [Example 385, (R)-2-amino-5-(1-methyl-1H-pyrazol-4-yl)-N-(1-(4′-((4-methylpiperazin-1-yl)methyl)-[1,1′-biphenyl]-4-carbonyl)pyrrolidin-3-yl)nicotinamide]
100 to 1000 | CN1CCN(C(C)(C)c2ccc(-c3ccc(C(=O)N4CC[C@@H](NC(=O)c5cc(-c6cnn(C)c6)cnc5N)C4)cc3)cc2)CC1 [Example 386, (R)-2-amino-5-(1-methyl-1H-pyrazol-4-yl)-N-(1-(4′-(2-(4-methylpiperazin-1-yl)propan-2-yl)-[1,1′-biphenyl]-4-carbonyl)pyrrolidin-3-yl)nicotinamide]
100 to 1000 | Cn1cc(-c2cnc(N)c(C(=O)N[C@@H]3CCN(C(=O)c4ccc(-c5ccc(C(C)(C)N6CCN(CCO)CC6)cc5)cc4)C3)c2)cn1 [Example 387, (R)-2-amino-N-(1-(4′-(2-(4-(2-hydroxyethyl)piperazin-1-yl)propan-2-yl)-[1,1′-biphenyl]-4-carbonyl)pyrrolidin-3-yl)-5-(1-methyl-1H-pyrazol-4-yl)nicotinamide]
100 to 1000 | CN1CCN(Cc2cccc(-c3ccc(C(=O)N4CC[C@@H](NC(=O)c5cc(-c6cnn(C)c6)cnc5N)C4)cc3)c2)CC1 [Example 388, (R)-2-amino-5-(1-methyl-1H-pyrazol-4-yl)-N-(1-(3′-((4-methylpiperazin-1-yl)methyl)-[1,1′-biphenyl]-4-carbonyl)pyrrolidin-3-yl)nicotinamide]
100 to 1000 | Cn1cc(-c2cnc(N)c(C(=O)N[C@@H]3CCN(C(=O)c4ccc(-c5cccc(CN6CCN(CCO)CC6)c5)cc4)C3)c2)cn1 [Example 389, (R)-2-amino-N-(1-(3′-((4-(2-hydroxyethyl)piperazin-1-yl)methyl)-[1,1′-biphenyl]-4-carbonyl)pyrrolidin-3-yl)-5-(1-methyl-1H-pyrazol-4-yl)nicotinamide]
> 1000 | CN1CCN(Cc2ccc(-c3cccc(C(=O)N4CC[C@@H](NC(=O)c5cc(-c6cnn(C)c6)cnc5N)C4)c3)cc2)CC1 [Example 390, (R)-2-amino-5-(1-methyl-1H-pyrazol-4-yl)-N-(1-(4′-((4-methylpiperazin-1-yl)methyl)-[1,1′-biphenyl]-3-carbonyl)pyrrolidin-3-yl)nicotinamide]
100 to 1000 | Cn1cc(-c2cnc(N)c(C(=O)N[C@@H]3CCN(C(=O)c4ccc(-c5ccccc5Cl)cn4)C3)c2)cn1 [Example 395, (R)-2-amino-N-(1-(5-(2-chlorophenyl)picolinoyl)pyrrolidin-3-yl)-5-(1-methyl-1H-pyrazol-4-yl)nicotinamide]
> 1000 | Cn1cc(-c2cnc(N)c(C(=O)N[C@@H]3CCN(C(=O)c4ccc(-c5ccccc5)cn4)C3)c2)cn1 [Example 396, (R)-2-amino-5-(1-methyl-1H-pyrazol-4-yl)-N-(1-(5-phenylpicolinoyl)pyrrolidin-3-yl)nicotinamide]
100 to 1000 | Cn1cc(-c2cnc(N)c(C(=O)N[C@@H]3CCN(C(=O)c4ccc(-c5ccccc5Cl)nc4)C3)c2)cn1 [Example 397, (R)-2-amino-N-(1-(6-(2-chlorophenyl)nicotinoyl)pyrrolidin-3-yl)-5-(1-methyl-1H-pyrazol-4-yl)nicotinamide]
100 to 1000 | Cc1cc(C(=O)N2CC[C@@H](NC(=O)c3cc(-c4cnn(C)c4)cnc3N)C2)ccc1-c1ccccc1 [Example 399, (R)-2-amino-5-(1-methyl-1H-pyrazol-4-yl)-N-(1-(2-methyl-[1,1′-biphenyl]-4-carbonyl)pyrrolidin-3-yl)nicotinamide]
> 1000 | Cn1cc(-c2cnc(N)c(C(=O)N[C@@H]3CCN(C(=O)c4ccc(I)cc4)C3)c2)cn1 [Example 400, (R)-2-amino-N-(1-(4-iodobenzoyl)pyrrolidin-3-yl)-5-(1-methyl-1H-pyrazol-4-yl)nicotinamide]
> 1000 | Cn1cc(-c2cnc(N)c(C(=O)N[C@@H]3CCN(C(=O)c4cc5ccccc5o4)C3)c2)cn1 [Example 401, (R)-2-amino-N-(1-(benzofuran-2-carbonyl)pyrrolidin-3-yl)-5-(1-methyl-1H-pyrazol-4-yl)nicotinamide]
> 1000 | Cc1c(C(=O)N2CC[C@@H](NC(=O)c3cc(-c4cnn(C)c4)cnc3N)C2)oc2ccccc12 [Example 402, (R)-2-amino-5-(1-methyl-1H-pyrazol-4-yl)-N-(1-(3-methylbenzofuran-2-carbonyl)pyrrolidin-3-yl)nicotinamide]
> 1000 | Cn1cc(-c2cnc(N)c(C(=O)N[C@@H]3CCN(C(=O)c4cc5cc(Cl)ccc5o4)C3)c2)cn1 [Example 403, (R)-2-amino-N-(1-(5-chlorobenzofuran-2-carbonyl)pyrrolidin-3-yl)-5-(1-methyl-1H-pyrazol-4-yl)nicotinamide]
> 1000 | Cn1cc(-c2cnc(N)c(C(=O)N[C@@H]3CCN(C(=O)C4Cc5cc(Cl)ccc5O4)C3)c2)cn1 (stereo partly drawn) [Example 404, 2-amino-N-((3R)-1-(5-chloro-2,3-dihydrobenzofuran-2-carbonyl)pyrrolidin-3-yl)-5-(1-methyl-1H-pyrazol-4-yl)nicotinamide]
100 to 1000 | Cn1cc(-c2cnc(N)c(C(=O)N[C@@H]3CCN(C(=O)c4ccc5ccccc5c4)C3)c2)cn1 [Example 405, (R)—N-(1-(2-naphthoyl)pyrrolidin-3-yl)-2-amino-5-(1-methyl-1H-pyrazol-4-yl)nicotinamide]

IC50 [nM] | Compound
100 to 1000 | Cn1cc(-c2cnc(N)c(C(=O)N[C@@H]3CCN(C(=O)c4cc5ccccc5s4)C3)c2)cn1 [Example 406, (R)-2-amino-N-(1-(benzo[b]thiophene-2-carbonyl)pyrrolidin-3-yl)-5-(1-methyl-1H-pyrazol-4-yl)nicotinamide]
> 1000 | Cn1cc(-c2cnc(N)c(C(=O)N[C@@H]3CCN(C(=O)c4cc(Br)c(Br)s4)C3)c2)cn1 [Example 407, (R)-2-amino-N-(1-(4,5-dibromothiophene-2-carbonyl)pyrrolidin-3-yl)-5-(1-methyl-1H-pyrazol-4-yl)nicotinamide]
> 1000 | Cc1ccc(C(=O)N2CC[C@@H](NC(=O)c3cc(-c4cnn(C)c4)cnc3N)C2)s1 [Example 408, (R)-2-amino-5-(1-methyl-1H-pyrazol-4-yl)-N-(1-(5-methylthiophene-2-carbonyl)pyrrolidin-3-yl)nicotinamide]
100 to 1000 | Cn1cc(-c2cnc(N)c(C(=O)N[C@@H]3CCN(C(=O)c4ccc(OCc5ccccc5)cc4)C3)c2)cn1 [Example 410, (R)-2-amino-N-(1-(4-(benzyloxy)benzoyl)pyrrolidin-3-yl)-5-(1-methyl-1H-pyrazol-4-yl)nicotinamide]
> 1000 | Cn1cc(-c2cnc(N)c(C(=O)N[C@@H]3CCN(C(=O)c4cccc(Oc5ccccc5)c4)C3)c2)cn1 [Example 412, (R)-2-amino-5-(1-methyl-1H-pyrazol-4-yl)-N-(1-(3-phenoxybenzoyl)pyrrolidin-3-yl)nicotinamide]
> 1000 | Cn1cc(-c2cnc(N)c(C(=O)N[C@@H]3CCN(C(=O)c4ccc(C(C)(C)C)cc4)C3)c2)cn1 [Example 414, (R)-2-amino-N-(1-(4-(tert-butyl)benzoyl)pyrrolidin-3-yl)-5-(1-methyl-1H-pyrazol-4-yl)nicotinamide]
> 1000 | Cc1ccc(C(=O)N2CC[C@@H](NC(=O)c3cc(-c4cnn(C)c4)cnc3N)C2)cc1C [Example 415, (R)-2-amino-N-(1-(3,4-dimethylbenzoyl)pyrrolidin-3-yl)-5-(1-methyl-1H-pyrazol-4-yl)nicotinamide]
> 1000 | CN1CCN(c2ccc(C(=O)N3CC[C@@H](NC(=O)c4cc(-c5cnn(C)c5)cnc4N)C3)cc2)CC1 [Example 416, (R)-2-amino-5-(1-methyl-1H-pyrazol-4-yl)-N-(1-(4-(4-methylpiperazin-1-yl)benzoyl)pyrrolidin-3-yl)nicotinamide]
> 1000 | CC(C)c1ccc(C(=O)N2CC[C@@H](NC(=O)c3cc(-c4cnn(C)c4)cnc3N)C2)cc1 [Example 418, (R)-2-amino-N-(1-(4-isopropylbenzoyl)pyrrolidin-3-yl)-5-(1-methyl-1H-pyrazol-4-yl)nicotinamide]
> 1000 | Cn1cc(-c2cnc(N)c(C(=O)N[C@@H]3CCN(C(=O)c4ccc(C#N)cc4)C3)c2)cn1 [Example 419, (R)-2-amino-N-(1-(4-cyanobenzoyl)pyrrolidin-3-yl)-5-(1-methyl-1H-pyrazol-4-yl)nicotinamide]
> 1000 | CSc1ccc(C(=O)N2CC[C@@H](NC(=O)c3cc(-c4cnn(C)c4)cnc3N)C2)cc1 [Example 420, (R)-2-amino-5-(1-methyl-1H-pyrazol-4-yl)-N-(1-(4-(methylthio)benzoyl)pyrrolidin-3-yl)nicotinamide]
> 1000 | Cn1cc(-c2cnc(N)c(C(=O)N[C@@H]3CCN(C(=O)Cc4ccc(-c5ccccc5)cc4)C3)c2)cn1 [Example 422, (R)—N-(1-(2-([1,1′-biphenyl]-4-yl)acetyl)pyrrolidin-3-yl)-2-amino-5-(1-methyl-1H-pyrazol-4-yl)nicotinamide]
> 1000 | Cn1cc(-c2cnc(N)c(C(=O)N[C@@H]3CCN(C(=O)C=Cc4ccccc4)C3)c2)cn1 [Example 424, (R)-2-amino-N-(1-cinnamoylpyrrolidin-3-yl)-5-(1-methyl-1H-pyrazol-4-yl)nicotinamide]
> 1000 | Cn1cc(-c2cnc(N)c(C(=O)N[C@@H]3CCN(C(=O)/C=C/c4ccc5c(c4)OCO5)C3)c2)cn1 [Example 425, (R,E)-2-amino-N-(1-(3-(benzo[d][1,3]dioxol-5-yl)acryloyl)pyrrolidin-3-yl)-5-(1-methyl-1H-pyrazol-4-yl)nicotinamide]
> 1000 | C/C(=C\c1ccccc1)C(=O)N1CC[C@@H](NC(=O)c2cc(-c3cnn(C)c3)cnc2N)C1 [Example 426, (R,E)-2-amino-5-(1-methyl-1H-pyrazol-4-yl)-N-(1-(2-methyl-3-phenylacryloyl)pyrrolidin-3-yl)nicotinamide]
100 to 1000 | Cn1cc(-c2cnc(N)c(C(=O)N[C@@H]3CCN(C(=O)/C=C/c4ccc(Br)cc4)C3)c2)cn1 [Example 427, (R,E)-2-amino-N-(1-(3-(4-bromophenyl)acryloyl)pyrrolidin-3-yl)-5-(1-methyl-1H-pyrazol-4-yl)nicotinamide]
